{"source": "ChEMBL document CHEMBL4396909", "about": "“Evolution of HIV-1 reverse transcriptase and integrase dual inhibitors: Recent advances and developments” (Eur J Med Chem, 2019)", "system": "Human immunodeficiency virus 1", "assay": "Antiviral activity against HIV-1 infected in HEK293 cells preincubated for 4 hrs with cell followed by viral infection measured after 24 hrs by luciferase reporter gene assay", "type": "functional, organism-based", "details": "Human immunodeficiency virus 1, HEK293", "data": [{"compound": "O=C(O)C(=O)CC(=O)c1cc(OCc2ccccc2)cc(OCc2ccccc2)c1", "values": [{"measurement": "IC50", "value": 480, "unit": "nM"}]}]}
